In brackets after ≈: the same amount, converted by molar mass.
What was measured:
[1] = system: H9 (acute lymphoblastic leukemia, ALL); test: MTT growth inhibition of leukemia cells, 72 h; assay type: cell-based, human; conditions: Homo sapiens, H9, 72 h; for IC50: read-out: IC50; for IC90: read-out: IC90
Method in brief: (§1)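 Viable cell concentration is determined by MTT after 72 h exposure at 37 °C in 5% CO2. Cells (6000 per well) grow in RPMI-1640 containing 10% fetal bovine serum, and graded compound concentrations are added one day after seeding.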

[2] = system: Jurkat (acute lymphoblastic leukemia, ALL); test: MTT growth inhibition of leukemia cells, 72 h; assay type: cell-based, human; conditions: Homo sapiens, 72 h; for IC50: read-out: IC50; for IC90: read-out: IC90
Method in brief: as §1

[3] = system: K562/adr (drug-resistant, chronic myeloid leukemia, CML); test: MTT growth inhibition of leukemia cells, 72 h; assay type: cell-based, human; conditions: Homo sapiens, K562/Adr; for IC50: read-out: IC50; for IC90: read-out: IC90
Method in brief: as §1

[4] = system: Kasumi-1 (acute myeloid leukemia M2 type, AML-M2); test: MTT growth inhibition of leukemia cells, 72 h; assay type: cell-based, human; conditions: Homo sapiens, Kasumi-1, 72 h; for IC50: read-out: IC50; for IC90: read-out: IC90
Method in brief: as §1

[5] = system: NB4 (acute promyelocytic leukemia, AML); test: MTT growth inhibition of leukemia cells, 72 h; assay type: cell-based, human; conditions: Homo sapiens, NB4, 72 h; for IC50: read-out: IC50; for IC90: read-out: IC90
Method in brief: as §1

[6] = system: RPMI8226 (multiple myeloma); test: MTT growth inhibition of multiple myeloma cells, 72 h; assay type: cell-based, human; conditions: Homo sapiens, RPMI 8226, 72 h; for IC50: read-out: IC50; for IC90: read-out: IC90
Method in brief: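 RPMI8226 myeloma cells, 6000 per well in 1640 medium with 10% FBS, exposed to compounds at a range of concentrations (diluted from 10 mg/mL DMSO stock) for 72 h at 37° C, 5% CO2. Viable cells then determined by MTT.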

[7] = system: A549 (human lung cancer); test: MTT growth inhibition of human solid tumor cells, 72 h; assay type: cell-based; conditions: Homo sapiens, A549, 72 h; for IC50: read-out: IC50; for IC90: read-out: IC90
Method in brief: (§2)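 Cells were seeded at 4000 per well in DMEM High Glucose with 10% fetal bovine serum and left 24 h at 37° C, 5% CO2. Tanshinone I derivatives were added at a range of concentrations, diluted in medium from a 10 mg/mL DMSO stock, and viable cell concentration was then determined.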

[8] = system: Becap37 (human breast cancer cell); test: as above; assay type: cell-based; conditions: Homo sapiens, Becap-37, 72 h; for IC50: read-out: IC50; for IC90: read-out: IC90
Method in brief: as §2

[9] = system: CNE (nasopharyngeal carcinoma cell); test: as above; assay type: cell-based; conditions: Homo sapiens; for IC50: read-out: IC50; for IC90: read-out: IC90
Method in brief: as §2

[10] = system: CaES-17 (esophageal cancer cell); test: as above; assay type: cell-based; conditions: Homo sapiens, CaEs17, CaEs-17, 72 h; for IC50: read-out: IC50; for IC90: read-out: IC90
Method in brief: as §2

[11] = system: Hela (human cervical cancer cell); test: as above; assay type: cell-based; conditions: Homo sapiens, HeLa, 72 h; for IC50: read-out: IC50; for IC90: read-out: IC90
Method in brief: as §2

[12] = system: Hep G2 (human liver cancer cell); test: as above; assay type: cell-based; conditions: Homo sapiens, HepG2, Hep G2, 72 h; for IC50: read-out: IC50; for IC90: read-out: IC90
Method in brief: as §2

[13] = system: Hep-2 (laryngeal carcinoma); test: as above; assay type: cell-based; conditions: Homo sapiens, HEp-2, 72 h; for IC50: read-out: IC50; for IC90: read-out: IC90
Method in brief: as §2

[14] = system: MG63 (osteosarcoma); test: as above; assay type: cell-based; conditions: for IC50 / IC90: Homo sapiens, MG-63, 72 h; for IC50: read-out: IC50; for IC90: read-out: IC90
Method in brief: as §2

[15] = system: MGC 803 (human gastric cancer cell); test: as above; assay type: cell-based; conditions: Homo sapiens, MGC-803, 72 h; for IC50: read-out: IC50; for IC90: read-out: IC90
Method in brief: as §2

[16] = system: PANC-1 (pancreatic cancer); test: as above; assay type: cell-based; conditions: Homo sapiens, PANC-1, 72 h; for IC50: read-out: IC50; for IC90: read-out: IC90
Method in brief: as §2

[17] = system: PC-3 (prostate cancer); test: as above; assay type: cell-based; conditions: Homo sapiens, PC-3, 72 h; for IC50: read-out: IC50; for IC90: read-out: IC90
Method in brief: as §2

[18] = system: RKO (human colon adenocarcinoma cell); test: as above; assay type: cell-based; conditions: Homo sapiens; for IC50: read-out: IC50; for IC90: read-out: IC90
Method in brief: as §2

[19] = system: SK-OV-3 (ovarian cancer cell); test: as above; assay type: cell-based; conditions: Homo sapiens, SK-OV-3, 72 h; for IC50: read-out: IC50; for IC90: read-out: IC90
Method in brief: as §2

[20] = system: U87 MG (malignant glioma cell); test: as above; assay type: cell-based; conditions: Homo sapiens, U-87 MG, U87-MG, 72 h; for IC50: read-out: IC50; for IC90: read-out: IC90
Method in brief: as §2

CCC(=O)OCc1oc2c(c1C)C(=O)C(=O)c1c-2ccc2c(C)cccc12 [BS-TA-A03]
IC50 [1]: 6.4 µg/mL (≈ 17.7 µM)
IC90 [1]: > 16 µg/mL
IC50 [2]: 5.54 µg/mL (≈ 15.3 µM)
IC90 [2]: 17.1 µg/mL (≈ 47 µM)
IC50 [3]: 2.3 µg/mL (≈ 6.35 µM)
IC90 [3]: 6.61 µg/mL (≈ 18.2 µM)
IC50 [4]: 2.35 µg/mL (≈ 6.48 µM)
IC90 [4]: 7.79 µg/mL (≈ 21.5 µM)
IC50 [5]: 1.93 µg/mL (≈ 5.33 µM)
IC90 [5]: 9.65 µg/mL (≈ 26.6 µM)
IC50 [6]: 8.4 µg/mL (≈ 23.2 µM)
IC90 [6]: > 16 µg/mL
IC50 [7]: 10.6 µg/mL (≈ 29.1 µM)
IC90 [7]: 24.2 µg/mL (≈ 66.9 µM)
IC50 [8]: 14.2 µg/mL (≈ 39.3 µM)
IC90 [8]: > 16 µg/mL
IC50 [9]: 8.5 µg/mL (≈ 23.5 µM)
IC90 [9]: > 16 µg/mL
IC50 [10]: 15.5 µg/mL (≈ 42.7 µM)
IC90 [10]: > 16 µg/mL
IC50 [11]: 5 µg/mL (≈ 13.8 µM)
IC90 [11]: > 16 µg/mL
IC50 [12]: 10.6 µg/mL (≈ 29.2 µM)
IC90 [12]: > 16 µg/mL
IC50 [13]: 6.82 µg/mL (≈ 18.8 µM)
IC90 [13]: > 16 µg/mL
IC50 [14]: 4.86 µg/mL (≈ 13.4 µM)
IC90 [14]: > 16 µg/mL
IC50 [15]: 9.22 µg/mL (≈ 25.4 µM)
IC90 [15]: 23.2 µg/mL (≈ 64.2 µM)
IC50 [16]: 3.08 µg/mL (≈ 8.5 µM)
IC90 [16]: 13.3 µg/mL (≈ 36.8 µM)
IC50 [17]: 14.4 µg/mL (≈ 39.8 µM)
IC90 [17]: > 16 µg/mL
IC50 [18]: 2.77 µg/mL (≈ 7.64 µM)
IC90 [18]: > 16 µg/mL
IC50 [19]: > 16 µg/mL
IC90 [19]: > 16 µg/mL
IC50 [20]: > 16 µg/mL
IC90 [20]: > 16 µg/mL

Cc1c(CN(C)Cc2ccccc2)oc2c1C(=O)C(=O)c1c-2ccc2c(C)cccc12 [BS-TA-B01]
IC50 [1]: 0.7 µg/mL (≈ 1.71 µM)
IC90 [1]: 2.3 µg/mL (≈ 5.62 µM)
IC50 [2]: 0.96 µg/mL (≈ 2.34 µM)
IC90 [2]: 5.3 µg/mL (≈ 12.9 µM)
IC50 [3]: 1.13 µg/mL (≈ 2.76 µM)
IC90 [3]: 2.95 µg/mL (≈ 7.2 µM)
IC50 [4]: 0.66 µg/mL (≈ 1.61 µM)
IC90 [4]: 1.91 µg/mL (≈ 4.66 µM)
IC50 [5]: 0.26 µg/mL (≈ 0.635 µM)
IC90 [5]: 0.96 µg/mL (≈ 2.34 µM)
IC50 [6]: 0.52 µg/mL (≈ 1.27 µM)
IC90 [6]: 2.9 µg/mL (≈ 7.08 µM)
IC50 [7]: 1.7 µg/mL (≈ 4.15 µM)
IC90 [7]: 17 µg/mL (≈ 41.5 µM)
IC50 [8]: 0.43 µg/mL (≈ 1.05 µM)
IC90 [8]: 3.73 µg/mL (≈ 9.11 µM)
IC50 [9]: 0.817 µg/mL (≈ 2 µM)
IC90 [9]: 39 µg/mL (≈ 95.2 µM)
IC50 [10]: 0.97 µg/mL (≈ 2.37 µM)
IC90 [10]: 3.81 µg/mL (≈ 9.3 µM)
IC50 [11]: 1.31 µg/mL (≈ 3.2 µM)
IC90 [11]: 16.2 µg/mL (≈ 39.6 µM)
IC50 [12]: 1.25 µg/mL (≈ 3.05 µM)
IC90 [12]: 9.41 µg/mL (≈ 23 µM)
IC50 [13]: 0.88 µg/mL (≈ 2.15 µM)
IC90 [13]: 29.6 µg/mL (≈ 72.3 µM)
IC50 [14]: 0.38 µg/mL (≈ 0.928 µM)
IC90 [14]: 14.9 µg/mL (≈ 36.5 µM)
improvement of anti-MG63 activity as compared with tanshinone I ([14]; MG63, vs tanshinone I): ~3 fold
IC50 [15]: 0.79 µg/mL (≈ 1.93 µM)
IC90 [15]: 7.25 µg/mL (≈ 17.7 µM)
IC50 [16]: 0.81 µg/mL (≈ 1.98 µM)
IC90 [16]: 16 µg/mL (≈ 39.1 µM)
IC50 [17]: 1.83 µg/mL (≈ 4.47 µM)
IC90 [17]: 16 µg/mL (≈ 39.1 µM)
IC50 [18]: 0.17 µg/mL (≈ 0.415 µM)
IC90 [18]: 16 µg/mL (≈ 39.1 µM)
IC50 [19]: 5.41 µg/mL (≈ 13.2 µM)
IC90 [19]: 22.8 µg/mL (≈ 55.8 µM)
IC50 [20]: 0.74 µg/mL (≈ 1.81 µM)
IC90 [20]: 8 µg/mL (≈ 19.5 µM)
